Measured values published in patent publication US20220002283A1 (Mylan Laboratories Limited, priority 2019, published 2022).

Columns and labels:
[1] = cited from earlier work
[2] = Solid state stability, physical and chemical (PXRD and HPLC), overall finding
[3] = Solid state stability, PXRD; type: physicochemical; set-up: key: X: crystalline; S: stable
[4] = Solid state stability, impurities by HPLC; type: physicochemical
[5] = Solid state stability, HPLC meloxicam co-crystal assay; type: physicochemical; conditions: for M %: Meloxicam Assay % / A %: Co-former Assay %: samples as per Examples 1, 2, 3
[6] = 40° C./75% RH and 25° C./60% RH, three months
[7] = 25° C./60% RH, 1 mo., samples as per Examples 1, 2, 3
[8] = 25° C./60% RH, 2 mo., samples as per Examples 1, 2, 3
[9] = 25° C./60% RH, 3 mo., samples as per Examples 1, 2, 3
[10] = 25° C./60% RH, Initial, samples as per Examples 1, 2, 3
[11] = 40° C./75% RH, 1 mo., samples as per Example 7, 17 or 14
[12] = 40° C./75% RH, 1 mo., samples as per Examples 1, 2, 3
[13] = 40° C./75% RH, 2 mo., samples as per Example 7, 17 or 14
[14] = 40° C./75% RH, 2 mo., samples as per Examples 1, 2, 3
[15] = 40° C./75% RH, 3 mo., samples as per Examples 1, 2, 3
[16] = 40° C./75% RH, Initial, samples as per Example 7, 17 or 14
[17] = 40° C./75% RH, Initial, samples as per Examples 1, 2, 3
[18] = 25° C./60% RH, 1 mo., samples as per Example 7 or 17
[19] = 25° C./60% RH, 2 mo., samples as per Example 7 or 17
[20] = 25° C./60% RH, 3 mo., samples as per Example 7 or 17
[21] = 25° C./60% RH, Initial, samples as per Example 7 or 17
[22] = 40° C./75% RH, 3 mo., samples as per Example 7 or 17

O=C(O)c1ccc2ccccc2c1O [1-Hydroxy-2-naphthoic acid]
pKa (physchem): 1.5

O=C(O)CCc1ccccc1 [Hydrocinnamic acid]
pKa (co-former) [1]: 4.66 | pKa (physchem): -0.46

Cc1cnc(NC(=O)C2=C(O)c3ccccc3S(=O)(=O)N2C)s1.O=C(O)c1ccccc1O [Meloxicam:Salicylic acid Form III (1:1)]
physical and chemical stability [2, 6]: physically and chemically stable | physical and chemical stability ([2]; 40° C./75% RH, at least 2 months): physically and chemically stable | PXRD [3, 7]: S | PXRD [3, 8]: S | PXRD [3, 9]: S | PXRD [3, 10]: X | PXRD [3, 11]: S | PXRD [3, 12]: S | PXRD [3, 13]: S | PXRD [3, 14]: S | PXRD [3, 15]: S | PXRD [3, 16]: X | PXRD [3, 17]: X | Impurities (% w/w, by HPLC) Ethyl Meloxicam [4, 11]: 0.003 % w/w | Impurities (% w/w, by HPLC) Other* (any other individual impurity) [4, 11]: 0.01 % w/w | Impurities (% w/w, by HPLC) Total [4, 11]: 0.04 % w/w | Impurities (% w/w, by HPLC) Methyl Meloxicam [4, 13]: 0.001 % w/w | Impurities (% w/w, by HPLC) Other* (any other individual impurity) [4, 13]: 0.01 % w/w | Impurities (% w/w, by HPLC) Total [4, 13]: 0.01 % w/w | Impurities (% w/w, by HPLC) Other* (any other individual impurity) [4, 16]: 0.01 % w/w | Impurities (% w/w, by HPLC) Total [4, 16]: 0.01 % w/w | Meloxicam Related Compounds A, B, C, and D by HPLC ([4]; any timepoint from initiation up to 2 months, 40° C./75% RH): ^#Meloxicam Related Compounds A, B, C, and D (see Table 4a) were not detectable at any timepoint from initiation up to 2 months. | M %: Meloxicam Assay % ([5]; 25° C./60% RH, 1 mo.): 71.7% | A %: Co-former Assay % ([5]; 25° C./60% RH, 2 mo.): 27.2% | M %: Meloxicam Assay % ([5]; 25° C./60% RH, 2 mo.): 72.0% | A %: Co-former Assay % ([5]; 25° C./60% RH, 3 mo.): 27.6% | M %: Meloxicam Assay % ([5]; 25° C./60% RH, 3 mo.): 72.1% | A %: Co-former Assay % ([5]; 25° C./60% RH, Initial): 27.5% | M %: Meloxicam Assay % ([5]; 25° C./60% RH, Initial): 71.3% | Assay (% by HPLC) M % (Meloxicam Assay %) [5, 11]: 71.4% | M %: Meloxicam Assay % ([5]; 40° C./75% RH, 1 mo.): 72.0% | Assay (% by HPLC) M % (Meloxicam Assay %) [5, 13]: 71.2% | A %: Co-former Assay % ([5]; 40° C./75% RH, 2 mo.): 27.0% | M %: Meloxicam Assay % ([5]; 40° C./75% RH, 2 mo.): 71.5% | A %: Co-former Assay % ([5]; 40° C./75% RH, 3 mo.): 27.4% | M %: Meloxicam Assay % ([5]; 40° C./75% RH, 3 mo.): 71.8% | Assay (% by HPLC) M % (Meloxicam Assay %) [5, 16]: 71.1% | A %: Co-former Assay % ([5]; 40° C./75% RH, Initial): 27.5% | M %: Meloxicam Assay % ([5]; 40° C./75% RH, Initial): 71.3%

Cc1cnc(NC(=O)C2=C(O)c3ccccc3S(=O)(=O)N2C)s1.O=C(O)c1ccc2ccccc2c1O
physical and chemical stability [2, 6]: physically and chemically stable | PXRD [3, 18]: S | PXRD [3, 7]: S | PXRD [3, 19]: S | PXRD [3, 8]: S | PXRD [3, 20]: S | PXRD [3, 9]: S | PXRD [3, 21]: X | PXRD [3, 10]: X | PXRD [3, 11]: S | PXRD [3, 12]: S | PXRD [3, 13]: S | PXRD [3, 14]: S | PXRD [3, 22]: S | PXRD [3, 15]: S | PXRD [3, 16]: X | PXRD [3, 17]: X | Impurities (% w/w, by HPLC) Methyl Meloxicam [4, 18]: 0.01 % w/w | Impurities (% w/w, by HPLC) Other* (any other individual impurity) [4, 18]: 0.03 % w/w | Impurities (% w/w, by HPLC) Total [4, 18]: 0.08 % w/w | Impurities (% w/w, by HPLC) Methyl Meloxicam [4, 19]: 0.01 % w/w | Impurities (% w/w, by HPLC) Other* (any other individual impurity) [4, 19]: 0.03 % w/w | Impurities (% w/w, by HPLC) Total [4, 19]: 0.13 % w/w | Impurities (% w/w, by HPLC) Methyl Meloxicam [4, 20]: 0.01 % w/w | Impurities (% w/w, by HPLC) Other* (any other individual impurity) [4, 20]: 0.03 % w/w | Impurities (% w/w, by HPLC) Total [4, 20]: 0.08 % w/w | Impurities (% w/w, by HPLC) Methyl Meloxicam [4, 21]: 0.01 % w/w | Impurities (% w/w, by HPLC) Other* (any other individual impurity) [4, 21]: 0.02 % w/w | Impurities (% w/w, by HPLC) Total [4, 21]: 0.05 % w/w | Impurities (% w/w, by HPLC) Methyl Meloxicam [4, 11]: 0.01 % w/w | Impurities (% w/w, by HPLC) Other* (any other individual impurity) [4, 11]: 0.03 % w/w | Impurities (% w/w, by HPLC) Total [4, 11]: 0.09 % w/w | Impurities (% w/w, by HPLC) Methyl Meloxicam [4, 13]: 0.01 % w/w | Impurities (% w/w, by HPLC) Other* (any other individual impurity) [4, 13]: 0.03 % w/w | Impurities (% w/w, by HPLC) Total [4, 13]: 0.13 % w/w | Impurities (% w/w, by HPLC) Methyl Meloxicam [4, 22]: 0.01 % w/w | Impurities (% w/w, by HPLC) Other* (any other individual impurity) [4, 22]: 0.03 % w/w | Impurities (% w/w, by HPLC) Total [4, 22]: 0.10 % w/w | Impurities (% w/w, by HPLC) Methyl Meloxicam [4, 16]: 0.01 % w/w | Impurities (% w/w, by HPLC) Other* (any other individual impurity) [4, 16]: 0.03 % w/w | Impurities (% w/w, by HPLC) Total [4, 16]: 0.06 % w/w | Meloxicam Related Compounds A, B, C, and D by HPLC ([4]; any timepoint from initiation up to 3 months, 40° C./75% RH and 25° C./60% RH): ^#Meloxicam Related Compounds A, B, C, and D (see Table 4) were not detectable at any timepoint from initiation up to 3 months. | Assay (% by HPLC) M % (Meloxicam Assay %) [5, 18]: 65.0% | A %: Co-former Assay % ([5]; 25° C./60% RH, 1 mo.): 34.5% | M %: Meloxicam Assay % ([5]; 25° C./60% RH, 1 mo.): 64.7% | Assay (% by HPLC) M % (Meloxicam Assay %) [5, 19]: 63.5% | A %: Co-former Assay % ([5]; 25° C./60% RH, 2 mo.): 35.0% | M %: Meloxicam Assay % ([5]; 25° C./60% RH, 2 mo.): 65.0% | Assay (% by HPLC) M % (Meloxicam Assay %) [5, 20]: 64.3% | A %: Co-former Assay % ([5]; 25° C./60% RH, 3 mo.): 34.0% | M %: Meloxicam Assay % ([5]; 25° C./60% RH, 3 mo.): 64.6% | Assay (% by HPLC) M % (Meloxicam Assay %) [5, 21]: 65.1% | A %: Co-former Assay % ([5]; 25° C./60% RH, Initial): 34.2% | M %: Meloxicam Assay % ([5]; 25° C./60% RH, Initial): 64.3% | Assay (% by HPLC) M % (Meloxicam Assay %) [5, 11]: 64.7% | A %: Co-former Assay % ([5]; 40° C./75% RH, 1 mo.): 34.9% | M %: Meloxicam Assay % ([5]; 40° C./75% RH, 1 mo.): 64.9% | Assay (% by HPLC) M % (Meloxicam Assay %) [5, 13]: 64.0% | M %: Meloxicam Assay % ([5]; 40° C./75% RH, 2 mo.): 64.8% | Assay (% by HPLC) M % (Meloxicam Assay %) [5, 22]: 64.4% | A %: Co-former Assay % ([5]; 40° C./75% RH, 3 mo.): 34.2% | M %: Meloxicam Assay % ([5]; 40° C./75% RH, 3 mo.): 65.5% | Assay (% by HPLC) M % (Meloxicam Assay %) [5, 16]: 65.2% | A %: Co-former Assay % ([5]; 40° C./75% RH, Initial): 34.2% | M %: Meloxicam Assay % ([5]; 40° C./75% RH, Initial): 64.3%
